Results as given in US11091428B2 (HAPLOGEN GMBH, priority 2016, dated 2021).

Legend:
PLA2G16 = biological target: T1, PLA2G16 (Homo sapiens, UniProt P53816); experiment: Enzyme activity assay for PLA2G16 (Red/Green BODIPY PC-A2 fluorescence); assay type: biochemical; conditions: His-tagged PLA2G16, 4 min pre-incubation, 2 nM to 50 μM; read-out: IC50 values of the compounds determined in the enzyme activity assay for PLA2G16
T1 construct: Hexa-His (N); made in house; host or cells: E. coli BL21(DE3)
T1 sequence (P53816 1-162): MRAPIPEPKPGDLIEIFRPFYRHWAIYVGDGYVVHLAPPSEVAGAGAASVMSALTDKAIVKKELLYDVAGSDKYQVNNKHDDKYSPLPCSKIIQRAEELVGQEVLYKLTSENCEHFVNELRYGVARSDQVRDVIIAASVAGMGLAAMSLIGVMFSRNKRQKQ
Description: A cDNA for PLA2G16(NM_007069) was custom-synthesized by Genscript (Piscataway, USA) and inserted into a pET-based bacterial expression vector [Moffatt, B. A. and Studier, F. W. (1986) J. Mol. Biol. 189, 113-130; Rosenberg, A. H., Lade, B. N., Chui, D., Lin, S., Dunn, J. J., and Studier, F. W. (1987) Gene 56, 125-135], enabling the expression of N-terminally Hexa-His-tagged PLA2G16. E. coli BL21(DE3) (Agilent) were transformed with pET-His-PLA2G16according to the manufacturer's instructions and plated on Carbenicillin-containing agar plates (final concentration: 100 μg/mL). A single clone was in occulated in 100 mL LB medium supplemented with 100 μg/mL Carbenicillin and the in occulated culture was grown at 37° C. overnight in a rotary shaker. On the next day, the bacterial culture was diluted in LB medium supplemented with 100 μg/mL Carbenicillin (30 mL overnight culture in 800 mL total culture volume). Bacteria were grown at 37° C. until the OD600 reached 0.6. Gene expression was induced by addition of 1 mM isopropyl-β-D-thiogalactopyranosid (IPTG) for 2 h at 18° C. Subsequently, bacteria were harvested by centrifugation (15 min; 10,000×g; 4° C.) and frozen at −80° C. The bacterial pellet was resuspended in Buffer A (50 mM Tris/HCl pH 7.5, 500 mM NaCl, 5% glycerol, 5 mM β-Mercaptoethanol and 1 mM PMSF) and lysed by addition of 1 mg/mL lysozyme (Sigma Aldrich) and 100 μg/mL DNasel-(Roche). The sample was incubated at 30° C. for 30 min to allow lysis to occur. Then, the lysate was cleared by centrifugation (15,000×g, 15 min, 4° C.) and incubated with 1.5 mL Ni-NTA agarose suspension (Qiagen) for 60 min at 4° C. The Ni-NTA agarose was washed with 10 mL Buffer A. Bound protein was eluted by applying a manual gradient of Buffer A supplemented with increasing concentrations of imidazole (Sigma Aldrich; 25/50/75/100/250 mM). Purified fractions were analyzed by SDS-PAGE followed by Coomassie staining to assess the purity.
Activity of the protein was assessed as follows: Red/Green BODIPY® PC-A2 (Invitrogen, 1 mM in DMSO) was mixed with equal volumes of 1,2-Dioleoyl-sn-glycero-3-phosphocholine (DOPC; Sigma Aldrich, 10 mM in Ethanol) and 1,2-Dioleoyl-sn-glycero-3-phospho-rac-(1-glycerol) (DOPG; Sigma Aldrich, 10 mM in Ethanol) and 0.5 volumes of Cholesterol (CHOL; Sigma Aldrich, 10 mM in Ethanol) and vortexed for 5 s. The mixture (Red/Green BODIPY® PC-A2/DOPC/DOPG/CHOL) was diluted 1:91.4 in activity assay buffer (50 mM Tris/HCl pH 8.5, 100 mM NaCl) using a small-orifice pipette tip under constant vortexing. In the following, this preparation will be referred to as the “substrate solution”.
In order to evaluate their inhibitory potential, compounds were dissolved at 10 mM concentration in DMSO and directly spotted into assay plates (Corning, Cat. No. 3576) using acoustic liquid transfer (Labcyte Echo 525). Each compound was spotted at increasing concentrations, ranging from 2 nM to 50 μM (concentration in the final assay volume). 50 μl of PLA2G16 enzyme solution (diluted in activity buffer, supplemented with 5 mM L-Glutathione; Sigma Aldrich) was pre-incubated with compounds for 4 min., followed by addition of 50 μl of substrate solution. Fluorescence was recorded immediately after substrate addition for a total time of 10 min. using a SpectraMax M5 multimode reader (Excitation wavelength: 480 nm, emission wavelength: 530 nm). The relative increase of fluorescence over time is referred to as the enzyme activity. Half-maximal inhibitory concentrations (IC50) were derived by non-linear regression analysis using the drc package in R (R Development. Core Team, 2005).

[1] = test system: picornaviruses (CVB1, HRV-A2, HRV-A23, EV-68); experiment: Anti-picornavirus cytopathic effect (CPE) reduction assay on HeLa H1 cells; assay type: cell-based; conditions: Enterovirus B, HeLa H1, 48 h, HeLa H1 cells, 48 h, category from averaging the EC50 values from four picornaviruses (CVB1, HRV-A2, HRV-A23, EV68); read-out: EC50 values of the compounds determined in the anti-picornavirus assay
Experimental: The antiviral activity of selected compounds was tested using a cytopathic effect (CPE) reduction assay on HeLa H1 cells (ATCC CRL-1958). Briefly, cells were seeded in 96-well dishes (2×10^4 cells/well) in DMEM medium (Life technologies) supplemented with 10% FBS and PenStrep solution (100 U/mL Penicillin and 100 μg/mL streptomycin) and incubated at 37° C., 5% CO2 ovemight. The next day, cells were pre-treated with serial dilutions of the compound in DMEM medium supplemented with 2% FBS and PenStrep for 2 h at 37° C., 5% CO2. Next, cells were infected with virus (CVB1, HRV-A2, HRV-A23, EV-68) at an multiplicity of infection (MOI) which results in a complete virus-induced CPE within 2 days in control wells (infected and vehicle-treated). After 48 h, supematants were aspirated and 50 μl/well of CellTiterBlue reagent (Promega) diluted 1:5 in DMEM+2% FBS, was added to the cells. Plates were returned to the incubator and allowed to develop for 1.5 h. After that, plates were equilibrated to RT and subsequently, fluorescence was recorded (Excitation wavelength: 560 nm; emission wavelength: 590 nm) using a SpectraMax M5 multimode plate reader. Viability of cells was calculated according to the formula: V=(RFUCpd−RFUVeh/(RFUM−RFUVeh), where RFUCpd refers to infected and compound-treated cells, RFUVeh to infected and vehicle-treated cells and RFUM to uninfected and vehicle treated cells. Half-maximal effective concentrations (EC50) were calculated by non-linear regression analysis using the drc package in R (R Development. Core Team, 2005). EC50 categories as presented in Table 2 were calculated by averaging the EC50 values from four picornaviruses (CVB1, HRV-A2, HRV-A23, EV68).

| SMILES | IC50 (PLA2G16) [µM] | EC50 [1] [µM] |
| --- | --- | --- |
| COCC(=O)N(c1ccccc1OC)C(C)C(=O)C(=O)NCc1cccc(Cl)c1 (stereo not shown) [FP 175, N-[(3-Chlorophenyl)methyl]-3-[2-methoxy-N-(2-methoxyphenyl)acetamido]-2-oxobutanamide] | < 1 | 1 to 10 |
| CC(C(=O)C(=O)NCCOc1ccccc1)N(C=O)C1CCCCC1 (stereo not shown) [FP 109, 3-(N-Cyclohexylformamido)-2-oxo-N-(2-phenoxyethyl)butanamide] | < 1 | < 1 |
| O=C(N[C@@H]1C[C@@H]1F)C(=O)C1N(Cc2ccccc2)C(=O)CC12CC2 (stereo partly drawn) [FP 346, 2-{5-Benzyl-6-oxo-5-azaspiro[2.4]heptan-4-yl}-N-[(1R,2S)-2-fluorocyclopropyl]-2-oxoacetamide] | < 1 | < 1 |
| Cn1nccc1CNC(=O)C(=O)[C@H]1CCC(=O)N1Cc1ccccc1 [FP 296, 2-[(2R)-1-Benzyl-5-oxopyrrolidin-2-yl]-N-[(1-methyl-1H-pyrazol-5-yl)methyl]-2-oxoacetamide] | < 1 | 1 to 10 |
| O=C(NC1CCN(C(=O)NC2CCCC2)CC1)C(=O)[C@H]1CCC(=O)N1Cc1ccccc1 [FP 325, 4-{2-[(2R)-1-Benzyl-5-oxopyrrolidin-2-yl]-2-oxoacetamido}-N-cyclopentylpiperidine-1-carboxamide] | < 1 | < 1 |
| CC(C(=O)C(=O)NCc1cccc(Cl)c1)N(C)C=O (stereo not shown) [FP 69, N-[(3-Chlorophenyl)methyl]-3-(N-methylformamido)-2-oxobutanamide] | 1 to 10 | > 10 |
| CCC1CC(=O)N(Cc2ccccc2)C1C(=O)C(=O)NC1CC1 (stereo not shown) [FP 343, 2-(1-Benzyl-3-ethyl-5-oxopyrrolidin-2-yl)-N-cyclopropyl-2-oxoacetamide] | < 1 | < 1 |
| CC(=O)NCCNC(=O)C(=O)C1CCC(=O)N1Cc1ccc(Cl)cc1 (stereo not shown) [FP 243, 2-{1-[(4-Chlorophenyl)methyl]-5-oxopyrrolidin-2-yl}-N-(2-acetamidoethyl)-2-oxoacetamide] | 1 to 10 | > 10 |
| CC(C)OCCCNC(=O)C(=O)[C@H]1CCC(=O)N1Cc1ccccc1 [FP 301, 2-[(2R)-1-Benzyl-5-oxopyrrolidin-2-yl]-2-oxo-N-[3-(propan-2-yloxy)propyl]acetamide] | < 1 | < 1 |
| CC(C)NC(=O)C(=O)C(C)OCc1ccccc1 (stereo not shown) [FP 136, 3-(Benzyloxy)-2-oxo-N-(propan-2-yl)butanamide] | < 1 | < 1 |
| CCC(=O)N(c1ccccc1OC)C(C)C(=O)C(=O)NCc1cccc(Cl)c1 (stereo not shown) [FP 141, N-[(3-Chlorophenyl)methyl]-3-[N-(2-methoxyphenyl)propanamido]-2-oxobutanamide] | < 1 | 1 to 10 |
| Cc1cccc(CN2C(=O)CCC2C(=O)C(=O)NC2CC2)c1 (stereo not shown) [FP 269, N-Cyclopropyl-2-{1-[(3-methylphenyl)methyl]-5-oxopyrrolidin-2-yl}-2-oxoacetamide] | < 1 | 1 to 10 |
| COc1ccccc1N(C=O)C(C)C(=O)C(=O)NCc1ccccn1 (stereo not shown) [FP 96, 3-[N-(2-Methoxyphenyl)formamido]-2-oxo-N-[(pyridin-2-yl)methyl]butanamide] | < 1 | > 10 |
| O=C(NCc1cccc(=O)[nH]1)C(=O)C1CCC(=O)N1Cc1ccc(Cl)cc1 (stereo not shown) [FP 247, 2-{1-[(4-Chlorophenyl)methyl]-5-oxopyrrolidin-2-yl}-2-oxo-N-[(6-oxo-1,6-dihydropyridin-2-yl)methyl]acetamide] | < 1 | 1 to 10 |
| N#CCCNC(=O)C(=O)[C@H]1CCC(=O)N1Cc1ccccc1 [FP 262, 2-[(2R)-1-Benzyl-5-oxopyrrolidin-2-yl]-N-(2-cyanoethyl)-2-oxoacetamide] | < 1 | 1 to 10 |
| CC(C(=O)C(=O)NCC1CCCCC1)N(C)C(=O)C1CC1 (stereo not shown) [FP 146, N-(Cyclohexylmethyl)-3-(1-cyclopropyl-N-methylformamido)-2-oxobutanamide] | < 1 | 1 to 10 |
| COc1ccccc1N(C=O)C(C(=O)C(=O)NCc1cccc(Cl)c1)C(C)C (stereo not shown) [FP 35, N-[(3-Chlorophenyl)methyl]-3-[N-(2-methoxyphenyl)formamido]-4-methyl-2-oxopentanamide] | < 1 | 1 to 10 |
| CCCC(NS(=O)(=O)c1ccccc1)C(=O)C(=O)NCC1CC1 (stereo not shown) [FP 217, 3-Benzenesulfonamido-N-(cyclopropylmethyl)-2-oxohexanamide] | < 1 | 1 to 10 |
| O=C(NC1CCC1)C(=O)[C@H]1CCC(=O)N1Cc1ccccc1 [FP 237, 2-[(2R)-1-Benzyl-5-oxopyrrolidin-2-yl]-N-cyclobutyl-2-oxoacetamide] | < 1 | < 1 |
| O=CN(Cc1ccccc1)C(C(=O)C(=O)NCC1CC1)C1CC1 (stereo not shown) [FP 67, 3-(N-Benzylformamido)-3-cyclopropyl-N-(cyclopropylmethyl)-2-oxopropanamide] | < 1 | < 1 |
| Cc1cccc(C(=O)NC(C)C(=O)C(=O)NCC2CC2)c1 (stereo not shown) [FP 171, N-(Cyclopropylmethyl)-3-[(3-methylphenyl)formamido]-2-oxobutanamide] | 1 to 10 | > 10 |
| COc1ccccc1N(C=O)C(C)C(=O)C(=O)N[C@H](C)C(C)C (stereo partly drawn) [FP 107, 3-[N-(2-Methoxyphenyl)formamido]-N-[(2R)-3-methylbutan-2-yl]-2-oxobutanamide] | < 1 | 1 to 10 |
| COc1ccc(F)cc1N(C=O)C(C)C(=O)C(=O)NCc1cccc(Cl)c1 (stereo not shown) [FP 7, N-[(3-Chlorophenyl)methyl]-3-[N-(5-fluoro-2-methoxyphenyl)formamido]-2-oxobutanamide] | < 1 | < 1 |
